According to patent publication US20260273028A1, “PEROXIDASE COMPOSITIONS CONTAINING IMPROVED ENHANCING AGENTS” (FLEN HEALTH PHARMA NV, priority 2022, published 2026):

Key:
[1] = system: Aspergillus niger ATCC®16404™; experiment: MBC determination, broth microdilution with CFU enumeration; type: cell-based; conditions: A. niger
Description: (§1) The minimal bactericidal concentration (MBC) is defined as the lowest concentration of an antimicrobial agent that results in a complete killing of the microbial population (determined via standard CFU enumeration techniques) after overnight incubation. This endpoint measurement is used, together with the MIC (see above), to define the microbial susceptibility towards an antimicrobial agent. Here, the antimicrobial agent is a combination of the natural enzymes GOX+LPO.
(§2) To determine the MBC of the described combinations, a classical broth microdilution assay combined with standard CFU enumeration techniques was used to determine the susceptibility of a series of microbes commonly detected in infected wounds, including (a) the Gram-positive bacterium Staphylococcus aureus ATCC® 6538™ (results shown below), (b) the Gram-negative bacterium Pseudomonas aeruginosa ATCC®9027™ (results shown below), (c) the yeast Candida albicans ATCC®10231™ (results shown below), and (d) the fungus Aspergillus niger ATCC®16404™ (results shown below). In brief, the broth microdilution assay was set up as previously described (see 2.1). After incubation, the MBC was determined by investigating the presence of viable microorganisms at the MIC and following higher concentrations (MICx2, MICx4, and so on) using standard CFU enumeration techniques. For each combination evaluated, this test was repeated at least 5 times. The collected data were further analyzed in MS Excel. Mean concentration data (expressed as log CFU/ml) were visualized in a table format in which the MBC was highlighted.

[2] = system: Pseudomonas aeruginosa ATCC®9027™; experiment: as above; type: cell-based; conditions: P. aeruginosa
Description: as §1, §2

[3] = system: Aspergillus niger ATCC®16404™; experiment: Absolute microbial counts in function of enzyme solution concentration; type: cell-based; conditions: 0.005%-0.000156% (v/v) GOX+LPO
Source text: (§3) Absolute microbial counts in function of concentration of the antimicrobial agent tested are useful to monitor the bactericidal and fungicidal efficacy of that agent.
(§4) To determine the absolute number of live microorganisms in function of different enzyme solution concentrations tested, a classical broth microdilution assay combined with standard CFU enumeration techniques was used to determine the susceptibility of a series of microbes commonly detected in infected wounds, including (a) the Gram-positive bacterium Staphylococcus aureus ATCC® 6538™ (results shown below), (b) the Gram-negative bacterium Pseudomonas aeruginosa ATCC®9027™ (results shown below), (c) the yeast Candida albicans ATCC®10231™ (results shown below), and (d) the fungus Aspergillus niger ATCC®16404™ (results shown below). In brief, the broth microdilution assay was set up as previously described (see 2.1). After incubation, the absolute microbial count at the MIC and following higher concentrations (MICx2, MICx4, and so on) was determined using standard CFU enumeration techniques. For each combination evaluated, this test was repeated at least 5 times. The collected data were further analyzed in MS Excel and expressed as log CFU/ml. Mean results were plotted in function of enzyme solution concentration.

[4] = system: Pseudomonas aeruginosa ATCC®9027™; experiment: as above; type: cell-based; conditions: for reduction in absolute P. aeruginosa counts compared to reference and guaiacol solution: 0.005%-0.0000391% (v/v) GOX+LPO
Source text: as §3, §4

A. niger (ATCC®16404 ™) = experiment: Microbial challenge testing in alginogel with GOX+LPO; type: cell-based; conditions: for reduction in absolute A. niger counts compared to guaiacol in the same concentration: alginogel with GOX+LPO; for antimicrobial activity of enhancing candidate only against A. niger: alginogel without enzymes, highest concentration tested; for reduction in absolute A. niger counts compared to reference (enzymes only): alginogel, 0.0075% GOX+LPO
Description: (§5) To determine the ability of an antimicrobial agent to elicit an antimicrobial preserving efficacy in a gel environment, a microbiological challenge test can be performed. Here, the antimicrobial agent is a combination of the natural enzymes GOX+LPO. […] Microbial challenge testing was performed according to the method described in the European Pharmacopoeia current version chapter 5.1.3 ‘Efficacy of antimicrobial preservation’, but with adapted time points (0, 10, 20, 30, 40, 50, 60, 70 and 80 min instead of 0, 2, 7, 14 and 28 days). In brief, for every enhancing agent to be evaluated, a lab-scale alginogel (based on the Flaminal® formulation, but without the original enhancer guaiacol) including 0.0075% GOX+LPO (1:1) was prepared according to standard practices. Enhancing agents were added to the alginogel in a final concentration ranging from 0.01 to 0,00025% (v/w). As a reference, an alginogel including 0.0075% GOX+LPO (1:1) without the addition of any enhancing agent was included (designated as: enzymes only). As a control, an alginogel without both GOX+LPO (1:1) enzyme solution and enhancing agent (designated as: empty gel) as well as an alginogel only containing the enhancing agent only (designated as: enhancing candidate only) were included. After preparation, a homogenous sample of 10 g was transferred into a 50 ml conical tube for each alginogel to be evaluated and microorganism to be tested. For each test microorganism, including S. aureus (ATCC®6538™), P. aeruginosa (ATCC®9027™), C. albicans (ATCC®10231™) and A. niger (ATCC®16404 ™), a microbial suspension of about 10^8 CFU/ml was prepared in sterile diluent (buffered sodium chloride-peptone solution). Then, the 50 ml conical tubes containing the alginogel samples to be evaluated were inoculated with 100 μl of the designated inoculum. At the start (time point 0) and after 0, 10, 20, 30, 40, 50, 60, 70 and 80 min, the number of viable microorganisms per gram product (expressed as CFU/g) was determined by transferring a sample of 0.5 g of the product into a 15 ml conical tube containing 4.5 ml of sterile diluent and applying general dilution and plate count techniques. For each combination evaluated, this test was repeated at least 1-3 times. The collected data were further analyzed in MS Excel. Mean absolute counts (expressed as log CFU/g) were visualized in a graph.

[5] = system: C. albicans (ATCC®10231™); experiment: as above; type: cell-based; conditions: for reduction in absolute C. albicans counts compared to guaiacol in the same concentration: alginogel with GOX+LPO, enhancer 0.0005%; for antimicrobial activity of enhancing candidate only against C. albicans: alginogel without enzymes, highest concentration tested; for reduction in absolute C. albicans counts compared to reference (enzymes only): alginogel, 0.0075% GOX+LPO
Description: as §5

[6] = system: P. aeruginosa (ATCC®9027™); experiment: as above; type: cell-based; conditions: for reduction in absolute P. aeruginosa counts compared to guaiacol in the same concentration: alginogel with GOX+LPO, enhancer 0.0005%; for antimicrobial activity of enhancing candidate only against P. aeruginosa: alginogel without enzymes, highest concentration tested; for reduction in absolute P. aeruginosa counts compared to reference (enzymes only): alginogel, 0.0075% GOX+LPO
Description: as §5

[7] = exemplary values; cited from earlier work
[8] = enhancer 0,1%, 0,005%-0.000625% (v/v) GOX+LPO
[9] = enhancer 1%, 0,005%-0.000156% (v/v) GOX+LPO

SMILES	MBC: GOX+LPO enzyme solution needed ([2]; enhancer 0,1%)	increase in MBC compared to reference ([2]; enhancer 0,1%) [×]	MBC: GOX+LPO enzyme solution needed ([2]; enhancer 1%)	increase in MBC compared to reference ([2]; enhancer 1%) [×]	reduction in absolute P. aeruginosa counts compared to reference [4, 8]	reduction in absolute P. aeruginosa counts compared to reference [4, 9]	reduction in absolute A. niger counts compared to guaiacol in the same concentration (A. niger (ATCC®16404 ™); enhancer 0.0005%)	antimicrobial activity of enhancing candidate only against A. niger (A. niger (ATCC®16404 ™))	reduction in absolute A. niger counts compared to reference (enzymes only) (A. niger (ATCC®16404 ™); enhancer 0,0025-0,0005%)	reduction in absolute C. albicans counts compared to guaiacol in the same concentration [5]	antimicrobial activity of enhancing candidate only against C. albicans [5]	reduction in absolute C. albicans counts compared to reference (enzymes only) ([5]; enhancer 0.0025%)	reduction in absolute C. albicans counts compared to reference (enzymes only) ([5]; enhancer 0,00125-0,0005%)	reduction in absolute P. aeruginosa counts compared to guaiacol in the same concentration [6]	antimicrobial activity of enhancing candidate only against P. aeruginosa [6]	reduction in absolute P. aeruginosa counts compared to reference (enzymes only) ([6]; enhancer 0.00125-0.0005%)	reduction in absolute P. aeruginosa counts compared to reference (enzymes only) ([6]; enhancer 0.0025%)	LogP (octanol/water partition coefficient) [7]	MBC: GOX+LPO enzyme solution needed ([1]; enhancer 1%-0.01%)	increase in MBC compared to reference ([1]; enhancer 1%-0.01%) [×]	other results
CC[C@H](C)[C@H](N)C(=O)O [Isoleucine, isoleucine]	0.000625 % (v/v)	2	0.000156 % (v/v)	8	stronger reduction	stronger reduction	faster complete reduction	no antimicrobial activity	faster complete reduction	faster complete reduction	no antimicrobial activity	immediate entire reduction	faster complete reduction	faster complete reduction	no antimicrobial activity	faster complete reduction	immediate entire reduction	LogP = −1.72	–	–	MBC: GOX+LPO enzyme solution needed ([1]; enhancer 1%-0.005%): 0.000156 % (v/v); increase in MIC compared to reference (MBC section) ([1]; enhancer 1%-0.005%): 2 ×; reduction in absolute A. niger counts compared to reference ([3]; enhancer 1-0.005%): stronger reduction
NC(=O)CC[C@H](N)C(=O)O [Glutamine, glutamine]	0.000625 % (v/v)	2	0.000156 % (v/v)	8	stronger reduction	stronger reduction	–	no antimicrobial activity	–	faster complete reduction	no antimicrobial activity	immediate entire reduction	faster complete reduction	faster complete reduction	no antimicrobial activity	faster complete reduction	immediate entire reduction	LogP = −3.15	0.000156 % (v/v)	2	reduction in absolute A. niger counts compared to reference ([3]; enhancer 1-0.01%): stronger reduction; reduction in absolute A. niger counts compared to guaiacol in the same concentration (A. niger (ATCC®16404 ™); enhancer 0.0025%): faster complete reduction; reduction in absolute A. niger counts compared to reference (enzymes only) (A. niger (ATCC®16404 ™); enhancer 0.0025%): faster complete reduction
N[C@@H](CO)C(=O)O [Serine, serine]	–	–	–	–	–	–	faster complete reduction	no antimicrobial activity	faster complete reduction	faster complete reduction	no antimicrobial activity	immediate entire reduction	–	faster complete reduction	no antimicrobial activity	faster complete reduction	immediate entire reduction	LogP = −3.07	0.000156 % (v/v)	2	MBC: GOX+LPO enzyme solution needed ([2]; enhancer 0.0025-0.00125%): 0.000625 % (v/v); increase in MBC compared to reference or guaiacol solution ([2]; enhancer 0.0025-0.00125%): 2 ×; MBC: GOX+LPO enzyme solution needed ([2]; enhancer 0.01-0.005%): 0.000625 % (v/v); increase in MBC compared to reference or guaiacol solution ([2]; enhancer 0.01-0.005%): 2 ×; reduction in absolute A. niger counts compared to reference ([3]; enhancer 1-0.01%): stronger reduction; reduction in absolute P. aeruginosa counts compared to reference and guaiacol solution ([4]; enhancer 0.0025-0.00125%): stronger reduction; reduction in absolute P. aeruginosa counts compared to reference and guaiacol solution ([4]; enhancer 0.01-0.005%): stronger reduction; reduction in absolute C. albicans counts compared to reference (enzymes only) ([5]; enhancer 0.00125%): faster complete reduction
